# Measured values: ChEMBL document CHEMBL1255335 (Antimicrob Agents Chemother, 2008)
# Assays:
# [1] = test system: Escherichia coli; test: Antibacterial activity against Escherichia coli DH5alpha expressing Klebsiella pneumoniae beta-lactamase SHV-1 by agar dilution method; assay type: functional
# [2] = test system: Escherichia coli; test: Antibacterial activity against Escherichia coli DH5alpha expressing Klebsiella pneumoniae beta-lactamase SHV-72 by agar dilution method; assay type: functional
# [3] = test system: Klebsiella pneumoniae; test: Antibacterial activity against Klebsiella pneumoniae INSRA1229 harboring SHV-72 Ile8Phe, Ala146Val, and Lys234Arg mutations by agar dilution method
# [4] = test system: Escherichia coli; test: Antibacterial activity against Escherichia coli DH5alpha with deltaampC by agar dilution method; assay type: functional
# [5] = test system: Klebsiella pneumoniae; test: Antibacterial activity against Klebsiella pneumoniae INSRA1229 harboring SHV-72 Ile8Phe, Ala146Val, and Lys234Arg mutations by agar dilution method in presence of 2 ug/ml clavulanic acid; assay type: functional
# [6] = test system: Escherichia coli; test: Antibacterial activity against Escherichia coli DH5alpha with deltaampC by agar dilution method in presence of 2 ug/ml clavulanic acid; assay type: functional
# [7] = test system: Escherichia coli; test: Antibacterial activity against Escherichia coli DH5alpha expressing Klebsiella pneumoniae beta-lactamase SHV-1 by agar dilution method in presence of 2 ug/ml clavulanic acid; assay type: functional
# [8] = test system: Escherichia coli; test: Antibacterial activity against Escherichia coli DH5alpha with deltaampC by agar dilution method in presence of 4 ug/ml Tazobactam; assay type: functional
# [9] = test system: Klebsiella pneumoniae; test: Antibacterial activity against Klebsiella pneumoniae INSRA1229 harboring SHV-72 Ile8Phe, Ala146Val, and Lys234Arg mutations in presence of 4 ug/ml Tazobactam; assay type: functional
# [10] = test system: Escherichia coli; test: Antibacterial activity against Escherichia coli DH5alpha expressing Klebsiella pneumoniae beta-lactamase SHV-72 by agar dilution method in presence of 4 ug/ml Tazobactam; assay type: functional
# [11] = test system: Escherichia coli; test: Antibacterial activity against Escherichia coli DH5alpha expressing Klebsiella pneumoniae beta-lactamase SHV-1 by agar dilution method in presence of 4 ug/ml Tazobactam; assay type: functional
# [12] = test system: Escherichia coli; test: Antibacterial activity against Escherichia coli DH5alpha expressing Klebsiella pneumoniae beta-lactamase SHV-72 by agar dilution method in presence of 2 ug/ml clavulanic acid; assay type: functional
# [13] = Escherichia coli, DH5alpha, read-out: MIC
SMILES,MIC [1],"MIC [2, 13]",MIC [3],MIC [4],MIC [5],MIC [2],MIC [6],MIC [7],MIC [8],MIC [9],MIC [10],MIC [11],MIC [12]
CO/N=C(\C(=O)N[C@@H]1C(=O)N2C(C(=O)O)=C(COC(N)=O)CS[C@H]12)c1ccco1 [CEFUROXIME],4 µg/mL,8 µg/mL,2 µg/mL,4 µg/mL,,,,,,,,,
CCN1CCN(C(=O)N[C@@H](C(=O)N[C@@H]2C(=O)N3C(C(=O)O)=C(CSc4nnnn4C)CS[C@H]23)c2ccc(O)cc2)C(=O)C1=O [CEFOPERAZONE],4 µg/mL,≤ 0.25 µg/mL,2 µg/mL,≤ 0.25 µg/mL,,,,,,,,,
O=C(O)c1cn(C2CC2)c2cc(N3CCNCC3)c(F)cc2c1=O [CIPROFLOXACIN],≤ 0.125 µg/mL,≤ 0.125 µg/mL,≤ 0.125 µg/mL,≤ 0.125 µg/mL,,,,,,,,,
CO/N=C(\C(=O)N[C@@H]1C(=O)N2C(C(=O)O)=C(CSc3nc(=O)c(O)nn3C)CS[C@H]12)c1csc(N)n1 [CEFTRIAXONE],0.03 µg/mL,0.03 µg/mL,0.03 µg/mL,0.03 µg/mL,≤ 0.015 µg/mL,0.03 µg/mL,0.06 µg/mL,0.03 µg/mL,,,,,
CO[C@@]1(NC(=O)Cc2cccs2)C(=O)N2C(C(=O)O)=C(COC(N)=O)CS[C@@H]21 [CEFOXITIN],8 µg/mL,8 µg/mL,4 µg/mL,4 µg/mL,,,,,,,,,
CC1(C)S[C@@H]2[C@H](/N=C/N3CCCCCC3)C(=O)N2[C@H]1C(=O)O [AMDINOCILLIN],0.5 µg/mL,0.25 µg/mL,0.25 µg/mL,0.125 µg/mL,,,,,,,,,
CCN1CCN(C(=O)N[C@@H](C(=O)N[C@@H]2C(=O)N3[C@@H]2SC(C)(C)[C@@H]3C(=O)O)c2ccccc2)C(=O)C1=O [PIPERACILLIN],64 µg/mL,4 µg/mL,32 µg/mL,2 µg/mL,,,,,2 µM,2 µM,2 µM,2 µM,
C[C@@H](O)[C@H]1C(=O)N2C(C(=O)O)=C(SCCNC=N)C[C@H]12 [IMIPENEM ANHYDROUS],,,0.125 µg/mL,,,,,,,,,,
CC(C)(O/N=C(\C(=O)N[C@@H]1C(=O)N2C(C(=O)[O-])=C(C[n+]3ccccc3)CS[C@H]12)c1csc(N)n1)C(=O)O [CEFTAZIDIME],0.5 µg/mL,0.25 µg/mL,,0.25 µg/mL,,,0.125 µg/mL,0.25 µg/mL,,,,,0.25 µg/mL
